Assays:
[1] = biological target: T1, recombinant human MMP-13 (Homo sapiens, UniProt P45452); assay: In vitro metalloprotease inhibition, fluorogenic peptide assay (MMP-13); format: biochemical
T1 construct: made in house
Description: (§1) Certain of the compounds prepared in the manner described in Examples 1 to 223 were tested for activity by an in vitro assay. Following the procedures of Knight et al., FEBS Lett. 296(3):263 (1992). Briefly, 4-aminophenylmercuric acetate (APMA) or trypsin activated MMPs were incubated with various concentrations of the inhibitor compound at room temperature for 5 minutes (0.02% 2-mercapto-ethanol added to buffer for thiol compounds with 5 minutes or overnight incubation). More specifically, recombinant human MMP-13 and MMP-1 enzymes were prepared in laboratories of the inventors' employer. MMP-13 was expressed in baculovirus as a proenzyme, and purified first over a heparin agarose column and then over a chelating zinc chloride column. The proenzyme was activated by APMA for use in the assay. MMP-1 expressed in transfected HT-1080 was provided by Dr. Howard Welgus of Washington University, St. Louis, Mo. The enzyme was also activated using APMA and was then purified over a hydroxamic acid column.
(§2) The enzyme substrate is a methoxycoumarin-containing polypeptide having the following sequence:
(§3) MCA-ProLeuGlyLeuDpaAlaArgNH^2, wherein MCA is methoxycoumarin and Dpa is 3-(2,4-dinitrophenyl)-L-2,3-diaminopropionyl alanine. This substrate is commercially available from Baychem as product M-1895.
(§4) The buffer used for assays contained 100 mM Tris-HCl, 100 mM NaCl, 10 mM CaCl2 and 0.05 percent polyethyleneglycol(23) lauryl ether at a pH value of 7.5. Assays were carried out at room temperature, and dimethyl sulfoxide (DMSO) at a final concentration of 1 percent was used to dissolve inhibitor compound.
(§5) The assayed inhibitor compound in DMSO/buffer solution was compared to an equal amount of DMSO/buffer with no inhibitor as control using microfluor™ white plates (Dynatech). The inhibitor or control solution was maintained in the plate for 10 minutes and the substrate was added to provide a final concentration of 4 uM.
(§6) In the absence of inhibitor activity, a fluorogenic peptide is cleaved at the gly-leu peptide bond, separating the highly fluorogenic peptide from a 2.4-dinitrophenyl quencher, resulting in an increase of fluorescence intensity (excitation at 328 nm/emmision at 415 nm). Inhibition was measured as a reduction in fluorescent intensity as a function of inhibitor concentration, using a Perkin Elmer L550 plate reader. The IC50 values were calculated from those values. The results are set forth in the Inhibition Table below, reported in terms of IC50 to three significant figures.

[2] = biological target: T2, recombinant human MMP-1 (Homo sapiens, UniProt P03956); assay: In vitro metalloprotease inhibition, fluorogenic peptide assay (MMP-1); format: biochemical; settings: recombinant human MMP-1, APMA activated; fluorogenic MCA peptide substrate 4 uM; pH 7.5, room temperature
T2 construct: made in house; host or cells: transfected HT-1080 cells (provided by Dr. Howard Welgus, Washington University)
T2 sequence (P03956 100-469): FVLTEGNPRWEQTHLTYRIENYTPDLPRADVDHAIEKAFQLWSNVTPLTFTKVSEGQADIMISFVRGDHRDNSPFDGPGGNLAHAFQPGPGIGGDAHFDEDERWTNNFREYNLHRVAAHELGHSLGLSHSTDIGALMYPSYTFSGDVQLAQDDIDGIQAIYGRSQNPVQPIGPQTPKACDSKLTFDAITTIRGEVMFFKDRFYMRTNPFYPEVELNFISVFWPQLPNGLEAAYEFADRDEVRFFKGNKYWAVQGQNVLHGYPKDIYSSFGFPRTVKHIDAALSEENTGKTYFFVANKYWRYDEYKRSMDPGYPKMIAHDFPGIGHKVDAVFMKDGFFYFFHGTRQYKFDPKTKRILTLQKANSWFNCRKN
Description: as §1, §2, §3, §4, §5, §6

[3] = recombinant human MMP-13, APMA activated, fluorogenic MCA peptide substrate 4 uM, pH 7.5, room temperature

CCCCOc1ccc(S(=O)(=O)N(C)[C@H](C)CSSC[C@@H](C)N(C)S(=O)(=O)c2ccc(OCCCC)cc2)cc1 [Example 18]
IC50 [1, 3]: 390 nM | IC50 [2]: > 10000 nM

C[C@H](CS)N(C)S(=O)(=O)c1ccc2c(c1)OCO2 [Example 20C, N-(2-Mercapto-1R-methylethyl)-N-methyl-5-(1,3-benzodioxol-5-yl)sulfonamide]
IC50 [1, 3]: 110 nM | IC50 [2]: 3000 nM

C[C@H](CS)N(Cc1ccccc1)S(=O)(=O)c1ccc2c(c1)OCO2 [Example 21C, N-(2-Mercapto-1R-methylethyl)-N-(phenylmethyl)-5-(1,3-benzodioxol-5-yl)sulfonamide]
IC50 [1, 3]: 200 nM | IC50 [2]: 7000 nM

CCCCOc1ccc(S(=O)(=O)N(C)[C@H](C)CS)cc1 [Example 22C, N-(2-mercapto-1R-methylethyl)-N-methyl-4-(n-butoxybenzene)sulfonamide]
IC50 [1, 3]: 13 nM | IC50 [2]: 3400 nM

COc1ccc(S(=O)(=O)N2CCC(S)C2)cc1 (stereo not drawn) [Example 26, 1-[(4-Methoxyphenyl)sulfonyl]-3-mercaptopyrrolidine]
IC50 [1, 3]: 250 nM | IC50 [2]: > 10000 nM

COc1ccc(S(=O)(=O)N2CCCC2CS)cc1 (stereo not drawn) [Example 28, 1-[(4-Methoxyphenyl)sulfonyl]pyrrolidine-2-methanethiol]
IC50 [1, 3]: 800 nM | IC50 [2]: > 10000 nM

COc1ccc(S(=O)(=O)N(Cc2ccccc2)[C@@H](CS)C(C)C)cc1 [Example 31D, N-[(1R-Mercaptomethyl)-2-methylpropyl]-4-methoxy-N-(phenylmethyl)benzenesulfonamide]
IC50 [1, 3]: 600 nM | IC50 [2]: 2500 nM

COc1ccc(S(=O)(=O)N(Cc2ccccc2)C(CSC(C)=O)C(C)C)cc1 (stereo not drawn) [Example 33C]
IC50 [1, 3]: 345 nM | IC50 [2]: > 10000 nM

COc1ccc(S(=O)(=O)N(Cc2ccccc2)[C@H](CS)C(C)C)cc1 [Example 33D, N-[(1S-Mercaptomethyl)-2-methylpropyl]-4-methoxy-N-(phenylmethyl)benzenesulfonamide]
IC50 [1, 3]: > 10000 nM | IC50 [2]: > 10000 nM

CCCOc1ccc(S(=O)(=O)N(C)[C@H](C)CS)cc1 [Example 37C, N-(2-Mercapto-1R-methylethyl)-N-methyl-4-(n-propyloxy)benzenesulfonamide]
IC50 [1, 3]: 5 nM | IC50 [2]: 1500 nM

CCOc1ccc(S(=O)(=O)N(C)[C@H](C)CS)cc1 [Example 38C, N-(2-Mercapto-1R-methylethyl)-N-methyl-4-ethoxybenzenesulfonamide]
IC50 [1, 3]: 31 nM | IC50 [2]: 2500 nM

CCCCCOc1ccc(S(=O)(=O)N(C)[C@H](C)CS)cc1 [Example 39C, N-(2-Mercapto-1R-methylethyl)-N-methyl-4-(n-pentyloxy)benzenesulfonamide]
IC50 [1, 3]: 21.5 nM | IC50 [2]: > 10000 nM

C[C@H](CS)N(C)S(=O)(=O)c1ccc(Oc2ccccc2)cc1 [Example 40E, N-(2-Mercapto-1R-methylethyl)-N-methyl-4-(phenoxy)benzenesulfonamide]
IC50 [1, 3]: 0.61 nM | IC50 [2]: 309 nM

C[C@H](CS)N(C)S(=O)(=O)c1ccc(Sc2ccccc2)cc1 [Example 41C, N-(2-Mercapto-1R-methylethyl)-N-methyl-4-(thiophenyl)benzenesulfonamide]
IC50 ([1]; in vitro, recombinant human MMP-13): 2 nM | IC50 [1, 3]: 1.8 nM | IC50 [2]: > 10000 nM

C[C@H](CO)N(C)S(=O)(=O)c1ccc(-c2ccccn2)s1 [Example 42D, N-(2-Hydroxy-1R-methylethyl)-N-methyl-2-(pyrid-2-yl)thiophene-5-sulfonamide]
IC50 [1, 3]: 1800 nM | IC50 [2]: > 10000 nM

COc1ccc(S(=O)(=O)N(C)Cc2ccccc2S)cc1 [Example 44, N-[(2-Mercaptophenyl)methyl]-N-methyl-4-methoxybenzenesulfonamide]
IC50 [1, 3]: 400 nM | IC50 [2]: > 10000 nM

CCCCOc1ccc(S(=O)(=O)N(CCN2CCOCC2)[C@H](C)CS)cc1 [Example 45C, N-(2-Mercapto-1R-methylethyl)-N-[2-(4-morpholino)ethyl]-4-(n-butoxy)benzenesulfonamide]
IC50 [1, 3]: 3 nM | IC50 [2]: 3200 nM

CCCCOc1ccc(S(=O)(=O)N(CCN2CCCCC2)[C@H](C)CS)cc1 [Example 46, N-(2-Mercapto-1R-methylethyl)-N-[2-(1-piperidino)ethyl]-4-(n-butoxy)benzenesulfonamide]
IC50 [1, 3]: 4 nM | IC50 [2]: 3500 nM

CCCCOc1ccc(S(=O)(=O)N(CCN2CCCC2)[C@H](C)CS)cc1 [Example 47C, N-(2-Mercapto-1R-methylethyl)-N-[2-(1-pyrrolidino)ethyl]-4-(n-butoxy)benzenesulfonamide]
IC50 [1, 3]: 4.47 nM | IC50 [2]: 4830 nM

CCCCCN([C@H](C)CS)S(=O)(=O)c1ccc(OCCCC)cc1 [Example 48C, N-(2-Mercapto-1R-methylethyl)-N-pentyl-4-(n-butoxy)benzenesulfonamide]
IC50 [1, 3]: 45 nM | IC50 [2]: > 10000 nM

COc1ccc(S(=O)(=O)N(Cc2cccnc2)[C@H](C)CS)cc1 [Example 49, N-(2-Mercapto-1-R-methylethyl)-N-(3-pyridylmethyl)-4-methoxybenzenesulfonamide]
IC50 [1, 3]: 17.5 nM | IC50 [2]: 300 nM

C[C@H](CS)N(Cc1ccccc1)S(=O)(=O)CCCSc1ccccc1 [Example 51, N-(2-Mercapto-1R-methylethyl)-N-benzyl(3-thiophenylpropyl)sulphonamide]
IC50 [1, 3]: 340 nM | IC50 [2]: > 10000 nM

C[C@H](CS)N(CCN1CCCCC1)S(=O)(=O)CCCSc1ccccc1 [Example 52, N-(2-Mercapto-1R-methylethyl)-N-[2-(1-piperidino)ethyl](3-thiophenylpropyl)sulphonamide]
IC50 [1, 3]: 45 nM | IC50 [2]: > 10000 nM

CCCCCc1ccc(S(=O)(=O)N(C)[C@H](C)CS)cc1 [Example 53, N-(2-Mercapto-1R-methylethyl)-N-methyl-4-(n-pentyl)benzenesulfonamide]
IC50 [1, 3]: 11 nM | IC50 [2]: > 10000 nM

CCCCCc1ccc(S(=O)(=O)N(CCN2CCOCC2)[C@H](C)CS)cc1 [Example 54, N-(2-Mercapto-1R-methylethyl)-N-[2-(4-morpholino)ethyl]-4-(n-pentyl)benzenesulfonamide]
IC50 [1, 3]: 7 nM | IC50 [2]: 9000 nM

C[C@H](CS)N(C)S(=O)(=O)c1ccc(-c2ccccc2)cc1 [Example 55, N-(2-Mercapto-1R-methylethyl)-N-methyl-4-(phenyl)benzenesulfonamide]
IC50 [1, 3]: 0.71 nM | IC50 [2]: 313 nM

COc1ccc(S(=O)(=O)N(Cc2ccccc2)C(CS)Cc2ccccc2)cc1 (stereo not drawn) [Example 57, N-(2-Mercapto-1R,S-phenylmethyl)-N-phenylmethyl-4-methoxybenzenesulfonamide]
IC50 [1, 3]: 5000 nM | IC50 [2]: > 10000 nM

COC(=O)[C@H](CSSC[C@H](NS(=O)(=O)c1ccc(OC)cc1)C(=O)OC)NS(=O)(=O)c1ccc(OC)cc1 [Example 58]
IC50 [1, 3]: 200 nM | IC50 [2]: 6000 nM

COC(=O)[C@H](CSSC[C@@H](C(=O)OC)N(C)S(=O)(=O)c1ccc(OC)cc1)N(C)S(=O)(=O)c1ccc(OC)cc1 [Example 59]
IC50 [1, 3]: 13 nM | IC50 [2]: 1000 nM

C[C@H](CS)NS(=O)(=O)c1ccc(F)cc1 [Example 63, N-(2-mercapto-1R-methylethyl)-4-fluorobenzenesulfonamide]
IC50 [1, 3]: 2500 nM | IC50 [2]: 300 nM

C[C@H](CS)NS(=O)(=O)c1ccc(Br)cc1 [Example 65, N-(2-mercapto-1R-methylethyl)-4-bromobenzenesulfonamide]
IC50 [1, 3]: 445 nM | IC50 [2]: 1000 nM
